According to ChEMBL document CHEMBL1201862, “PubChem BioAssay data set” (2004):
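Results reflect a 48-hour exposure of cells in 96-well plates to compound at five concentrations. At the GI50, growth is halved.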 Activity calls are given as the source filed them. No stated cut-off is given here; in the data, active = GI50 up to about 1.1 µM and inactive = higher.

Experiments:
Assay in all cases: NCI tumour cell line growth inhibition, 48 h
HOP-92 = tested on: HOP-92
OVCAR-3 = tested on: OVCAR-3
A498 = tested on: A498
NCI-H23 = tested on: NCI-H23
COLO 205 = tested on: COLO 205
Hs-578T = tested on: Hs-578T
M14 = tested on: M14
UO-31 = tested on: UO-31
SW-620 = tested on: SW-620
OVCAR-8 = tested on: OVCAR-8
OVCAR-4 = tested on: OVCAR-4
SR = tested on: SR
HCC 2998 = tested on: HCC 2998
NCI-H522 = tested on: NCI-H522
SF-539 = tested on: SF-539
TK-10 = tested on: TK-10
MDA-MB-435 = tested on: MDA-MB-435
HL-60 = tested on: HL-60
SN12C = tested on: SN12C
HCT-116 = tested on: HCT-116
NCI-H226 = tested on: NCI-H226
IGROV-1 = tested on: IGROV-1
MOLT-4 = tested on: MOLT-4
SF-295 = tested on: SF-295
SK-OV-3 = tested on: SK-OV-3
MCF7 = tested on: MCF7
SK-MEL-5 = tested on: SK-MEL-5
SNB-19 = tested on: SNB-19
EKVX = tested on: EKVX
CCRF-CEM = tested on: CCRF-CEM
BT-549 = tested on: BT-549
Malme-3M = tested on: Malme-3M
NCI-H460 = tested on: NCI-H460
SNB-75 = tested on: SNB-75
HCT-15 = tested on: HCT-15
MDA-MB-231 = tested on: MDA-MB-231
DU-145 = tested on: DU-145
PC-3 = tested on: PC-3
RPMI-8226 = tested on: RPMI-8226
A549 = tested on: A549
RXF 393 = tested on: RXF 393
T47D = tested on: T47D
ACHN = tested on: ACHN
SF-268 = tested on: SF-268
NCI/ADR-RES = tested on: NCI/ADR-RES
KM12 = tested on: KM12
UACC-257 = tested on: UACC-257
SK-MEL-28 = tested on: SK-MEL-28
U-251 = tested on: U-251
LOX IMVI = tested on: LOX IMVI
OVCAR-5 = tested on: OVCAR-5
CAKI-1 = tested on: CAKI-1
HOP-62 = tested on: HOP-62
UACC-62 = tested on: UACC-62
SK-MEL-2 = tested on: SK-MEL-2
MDA-N = tested on: MDA-N
786-0 = tested on: 786-0
HT-29 = tested on: HT-29

For `COc1cc(OC)c2nc3occc3c(OC)c2c1`, the GI50 (HOP-92) was > 100 µM (inactive), the GI50 (OVCAR-3) was > 100 µM (inactive) and the GI50 (A498) was > 100 µM (inactive). For the same compound, the GI50 (NCI-H23) was > 100 µM (inactive), the GI50 (COLO 205) was > 100 µM (inactive) and the GI50 (Hs-578T) was > 100 µM (inactive). For the same compound, the GI50 (M14) was > 100 µM (inactive), the GI50 (UO-31) was 33.7 µM (inactive) and the GI50 (SW-620) was > 100 µM (inactive). For the same compound, the GI50 (OVCAR-8) was 99.5 µM (inactive), the GI50 (OVCAR-4) was 37.1 µM (inactive) and the GI50 (SR) was 55.7 µM (inactive). For the same compound, the GI50 (HCC 2998) was 41.6 µM (inactive), the GI50 (NCI-H522) was > 100 µM (inactive) and the GI50 (SF-539) was > 100 µM (inactive). The GI50 (TK-10) was > 100 µM (inactive), the GI50 (MDA-MB-435) was > 100 µM (inactive) and the GI50 (HL-60) was 94.8 µM (inactive). The GI50 (SN12C) was 71.1 µM (inactive), the GI50 (HCT-116) was 76 µM (inactive) and the GI50 (NCI-H226) was > 100 µM (inactive). For the same compound, the GI50 (IGROV-1) was > 100 µM (inactive), the GI50 (MOLT-4) was 61.9 µM (inactive) and the GI50 (SF-295) was 62.8 µM (inactive). The GI50 (SK-OV-3) was 97.5 µM (inactive), the GI50 (MCF7) was > 100 µM (inactive) and the GI50 (SK-MEL-5) was 45.7 µM (inactive). The GI50 (SNB-19) was 66.4 µM (inactive), the GI50 (EKVX) was 64.7 µM (inactive) and the GI50 (CCRF-CEM) was > 100 µM (inactive). The GI50 (BT-549) was > 100 µM (inactive), the GI50 (Malme-3M) was > 100 µM (inactive) and the GI50 (NCI-H460) was 78 µM (inactive). The GI50 (SNB-75) was 67.8 µM (inactive), the GI50 (HCT-15) was 30.4 µM and the GI50 (MDA-MB-231) was > 100 µM (inactive). The GI50 (DU-145) was > 100 µM (inactive), the GI50 (PC-3) was > 100 µM (inactive) and the GI50 (RPMI-8226) was 27.7 µM (inactive). The GI50 (A549) was > 100 µM (inactive), the GI50 (RXF 393) was 80 µM (inactive) and the GI50 (T47D) was 61.2 µM (inactive). For the same compound, the GI50 (ACHN) was 41.7 µM (inactive), the GI50 (SF-268) was > 100 µM (inactive) and the GI50 (NCI/ADR-RES) was > 100 µM (inactive). For the same compound, the GI50 (KM12) was > 100 µM (inactive), the GI50 (UACC-257) was > 100 µM (inactive) and the GI50 (SK-MEL-28) was > 100 µM (inactive). For the same compound, the GI50 (U-251) was > 100 µM (inactive), the GI50 (LOX IMVI) was 83.2 µM (inactive) and the GI50 (OVCAR-5) was > 100 µM (inactive). The GI50 (CAKI-1) was 77.4 µM (inactive), the GI50 (HOP-62) was > 100 µM (inactive) and the GI50 (UACC-62) was > 100 µM (inactive). The GI50 (SK-MEL-2) was > 100 µM (inactive), the GI50 (MDA-N) was > 100 µM (inactive) and the GI50 (786-0) was 96.4 µM (inactive). The GI50 (HT-29) was > 100 µM (inactive).
